Source: patent US20230047825A1, “ANTIMICROBIAL PEPTIDES” (priority 2019, published 2023)
In brackets after ≈: the same amount, converted by molar mass. Where two headings read alike, the source gives them in different places.

Tests used:
Experiment in all cases: microbe, parasite or virus in culture
[1] = tested on: Staphylococcus aureus ATCC 19636 (Smith)
Method: (§1) The S. aureus strains ATCC 29213, ATCC 19636, ATCC 33591 (MRSA), BAA-1556 (MRSA USA 300) were obtained from the American Type Culture Collection (ATCC). […] The species identity was confirmed with 16S rRNA analysis.
(§2) Two broth mediums were used, Mueller Hinton Broth and RPMI 1640+5% fetal bovine serum. Test substances were evaluated in 11-point titrations and performed in duplicate.
(§3) The direct colony suspension method was used to prepare inoculated broth. Isolated colonies were taken from an 18-24 h culture plate. Optical density measurements (OD620nm) were used to estimate the bacterial density. […] The stock solutions were diluted by 2-fold serial titrations with their respective vehicles for a total of 11 concentrations.
(§4) A 4 μL aliquot of each dilution was added to 196 μL of broth medium seeded with the organism in wells of a sterilized 96 well polypropylene plate (Nunc™ 249949) using aluminum foil as cover. The final bacterial count was 2 to 8×10^5 CFU/mL. […] The final test article concentration range was 32 to 0.0313 μg/mL.
(§5) Each test substance dilution was evaluated in duplicate on one test occasion. […] Plates were incubated at 35-37° C. for 18 h. The test plates were visually examined and each well was visually scored for growth or complete inhibition of growth. The MIC value was recorded.

[2] = tested on: Staphylococcus aureus ATCC 29213; conditions: for susceptibility category (CLSI M100 interpretive criteria) / MIC, antibiotic susceptibility: ATCC 29213; for MIC: Staphylococcus aureus
Method: as §1, §2, §3, §4, §5

[3] = tested on: Staphylococcus aureus ATCC 33591 (MRSA); conditions: for MIC: Staphylococcus aureus
Method: as §1, §2, §3, §4, §5

[4] = tested on: Staphylococcus aureus ATCC BAA-1556 (USA300, MRSA)
Method: as §1, §2, §3, §4, §5

[5] = tested on: Staphylococcus aureus VRS-2 (VanA, VRSA); set-up: MIC, antibiotic susceptibility: unit not given beside the values; conditions: for MIC: Staphylococcus aureus, VRSA; for MIC, antibiotic susceptibility: unit not given
Method: as §1, §2, §3, §4, §5

[6] = Staphylococcus aureus, ATCC19636, 18 h, read-out: MIC, antibiotic susceptibility
[7] = ATCC29213, 18 h, read-out: MIC, antibiotic susceptibility, ATCC 29213, CLSI M7-A10, unit inferred
[8] = ATCC33591|MRSA, 18 h, read-out: MIC, antibiotic susceptibility, ATCC 33591, CLSI M7-A10, unit inferred
[9] = Staphylococcus aureus, ATCCBAA1556|BAA1556|MRSA|USA300, 18 h, read-out: MIC, antibiotic susceptibility
[10] = 18 h, read-out: MIC, antibiotic susceptibility, VRS-2, CLSI M7-A10, unit inferred

Molecule	susceptibility category (CLSI M100 interpretive criteria) ([1]; ATCC 19636 (Smith))	MIC [1, 6] [µg/mL]	susceptibility category (CLSI M100 interpretive criteria) [2]	MIC [2, 7] [µg/mL]	susceptibility category (CLSI M100 interpretive criteria) ([3]; ATCC 33591)	MIC [3, 8] [µg/mL]	susceptibility category (CLSI M100 interpretive criteria) ([4]; BAA-1556)	MIC [4, 9] [µg/mL]	MIC [5, 10] [µg/mL]	susceptibility category (CLSI M100 interpretive criteria) ([5]; VRS-2)	other results
CCCCCCCCCC(=O)N[C@@H](Cc1c[nH]c2ccccc12)C(=O)N[C@H](CC(N)=O)C(=O)N[C@@H](CC(=O)O)C(=O)N[C@@H]1C(=O)NCC(=O)N[C@@H](CCCN)C(=O)N[C@@H](CC(=O)O)C(=O)N[C@H](C)C(=O)N[C@@H](CC(=O)O)C(=O)NCC(=O)N[C@H](CO)C(=O)N[C@@H]([C@H](C)CC(=O)O)C(=O)N[C@@H](CC(=O)c2ccccc2N)C(=O)O[C@@H]1C [Daptomycin]	S	0.25 (≈ 0.154 µM)	S	0.125 to 0.5 (≈ 0.0771 to 0.309 µM)	S	0.5 (≈ 0.309 µM)	S	0.25 (≈ 0.154 µM)	0.25 (≈ 0.154 µM)	S	
C[C@@H](O)[C@H]1C(=O)N2C(C(=O)O)=C(S[C@@H]3CN[C@H](C(=O)N(C)C)C3)[C@H](C)[C@H]12 [Meropenem]				0.0625 (≈ 0.163 µM)							
Teicoplanin			S								MIC, antibiotic susceptibility ([2]; CLSI M7-A10, unit inferred): 0.25 µg/mL
CCC[C@@H]1C[C@@H](C(=O)N[C@@H]([C@H]2O[C@H](SC)[C@H](O)[C@@H](O)[C@H]2O)[C@H](C)Cl)N(C)C1 [Clindamycin]	S	0.125 (≈ 0.294 µM)	S	0.125 (≈ 0.294 µM)	R	> 64	R	> 64	> 64	R	
Gentamicin	S		S		S		S			R	MIC, antibiotic susceptibility ([1]; ATCC 19636 (Smith), CLSI M7-A10, unit inferred): 0.25 µg/mL; MIC, antibiotic susceptibility ([2]; CLSI M7-A10, unit inferred): 0.25 µg/mL; MIC, antibiotic susceptibility ([3]; ATCC 33591, CLSI M7-A10, unit not given, in µg/mL): 0.25-1; MIC, antibiotic susceptibility ([4]; BAA-1556, CLSI M7-A10, unit not given, in µg/mL (unit assumed)): 0.25-0.5; MIC, antibiotic susceptibility ([5]; VRS-2, CLSI M7-A10, in µg/mL (unit assumed)): 32-64
C[C@@H](O)[C@H]1C(=O)N2C(C(=O)O)=C(SCCN=CN)C[C@H]12 [Imipenem]		≤ 0.016		0.016 to 0.031 (≈ 0.0534 to 0.104 µM)		≥ 16		0.125 to 0.25 (≈ 0.418 to 0.835 µM)	> 16		
Trimethoprim/sulfamethoxazole	S		S		S		S			R	MIC, antibiotic susceptibility ([5]; VRS-2, CLSI M7-A10): >8/152
C/C(=C\C(=O)OCCCCCCCCC(=O)O)C[C@@H]1OC[C@H](C[C@@H]2O[C@H]2[C@@H](C)[C@H](C)O)[C@@H](O)[C@H]1O [Mupirocin]		1 (≈ 2 µM)		0.25 to 2 (≈ 0.499 to 3.99 µM)		1 to 2 (≈ 2 to 3.99 µM)		> 64	1 to 2 (≈ 2 to 3.99 µM)		
CC[C@H]1OC(=O)[C@H](C)[C@@H](O[C@H]2C[C@@](C)(OC)[C@@H](O)[C@H](C)O2)[C@H](C)[C@@H](O[C@@H]2O[C@H](C)C[C@H](N(C)C)[C@H]2O)[C@](C)(O)C[C@@H](C)C(=O)[C@H](C)[C@@H](O)[C@]1(C)O [Erythromycin]	S-I	0.25 to 1 (≈ 0.341 to 1.36 µM)	S-I	0.25 to 1 (≈ 0.341 to 1.36 µM)	R	> 64	R	> 64	> 64	R	
Cc1onc(-c2ccccc2)c1C(=O)N[C@@H]1C(=O)N2[C@@H]1SC(C)(C)[C@@H]2C(=O)O [Oxacillin]	S	0.25 (≈ 0.623 µM)	S	0.25 to 0.5 (≈ 0.623 to 1.25 µM)	R	> 64	R	64 (≈ 159 µM)	> 64	R	
CO/N=C(\C(=O)N[C@@H]1C(=O)N2C(C(=O)O)=C(CSc3nc(=O)c(=O)[nH]n3C)CS[C@H]12)c1csc(N)n1 [Ceftriaxone]		4 (≈ 7.21 µM)		4 (≈ 7.21 µM)		> 64		≥ 64	> 64		
CO/N=C(\C(=O)N[C@@H]1C(=O)N2C(C(=O)[O-])=C(C[N+]3(C)CCCC3)CS[C@H]12)c1csc(N)n1 [Cefepime]		2 (≈ 4.16 µM)		2 to 4 (≈ 4.16 to 8.32 µM)		> 64		16 to 64 (≈ 33.3 to 133 µM)	> 64		
CC(=O)NC[C@H]1CN(c2ccc(N3CCOCC3)c(F)c2)C(=O)O1 [Linezolid]	S	2 to 4 (≈ 5.93 to 11.9 µM)	S	2 to 4 (≈ 5.93 to 11.9 µM)	S	0.5 to 1 (≈ 1.48 to 2.96 µM)	S	2 (≈ 5.93 µM)	2 (≈ 5.93 µM)	S	MIC ([1]; ATCC 19636 (Smith), MHB): 2 µg/mL (≈ 5.93 µM); MIC ([2]; ATCC29213, ATCC 29213, MHB): 4 µg/mL (≈ 11.9 µM); MIC ([2]; ATCC29213, ATCC 29213, RPMI + 5% FBS): 2 µg/mL; MIC ([3]; ATCC 33591, MHB): 2 µg/mL (≈ 5.93 µM); MIC ([3]; ATCC 33591, RPMI + 5% FBS): 1 µg/mL; MIC ([4]; ATCC BAA-1556, MHB): 2 µg/mL (≈ 5.93 µM); MIC ([5]; VRS-2, MHB): 2 µg/mL (≈ 5.93 µM); MIC ([5]; VRS-2, RPMI + 5% FBS): 1 µg/mL
C[C@H]1COc2c(N3CCN(C)CC3)c(F)cc3c(=O)c(C(=O)O)cn1c23 [Levofloxacin]	S	0.125 (≈ 0.346 µM)	S	0.125 to 0.25 (≈ 0.346 to 0.692 µM)	S	0.25 (≈ 0.692 µM)	R	4 to 8 (≈ 11.1 to 22.1 µM)	32 (≈ 88.6 µM)	R	
CN(C)c1cc(NC(=O)CNC(C)(C)C)c(O)c2c1C[C@H]1C[C@H]3[C@H](N(C)C)C(O)=C(C(N)=O)C(=O)[C@@]3(O)C(O)=C1C2=O [Tigecycline]		0.125 to 0.25 (≈ 0.213 to 0.427 µM)						0.25 (≈ 0.427 µM)			MIC ([2]; ATCC29213, 18 h, read-out: MIC, antibiotic susceptibility): 0.125 to 0.25 µg/mL (≈ 0.213 to 0.427 µM); MIC ([3]; ATCC33591|MRSA, 18 h, read-out: MIC, antibiotic susceptibility): 0.25 to 0.5 µg/mL (≈ 0.427 to 0.854 µM); MIC ([5]; 18 h, read-out: MIC, antibiotic susceptibility): 0.25 µg/mL (≈ 0.427 µM)
